Test results published in PubChem BioAssay AID1259407 (Chemical Carcinogenesis Research Information System (CCRIS), 2018).
Active and inactive are the calls of the source. No rule for the calls is given here.

Test system: CCRIS mutagenicity, Ames/micronucleus/aberration tests
Assay: CCRIS mutagenicity studies
[1] = Test System: AMES SALMONELLA TYPHIMURIUM, Strain/Indicator: TA98, Metabolic Activation: NONE, Method: PREINCUBATION
[2] = Test System: AMES SALMONELLA TYPHIMURIUM, Strain/Indicator: TA100, Metabolic Activation: NONE, Method: PREINCUBATION
[3] = Test System: AMES SALMONELLA TYPHIMURIUM, Strain/Indicator: TA1535, Metabolic Activation: NONE, Method: PREINCUBATION
[4] = Test System: AMES SALMONELLA TYPHIMURIUM, Strain/Indicator: TA1537, Metabolic Activation: NONE, Method: PREINCUBATION
[5] = Test System: E. COLI, Strain/Indicator: WP2 UVRA, Metabolic Activation: NONE, Method: PREINCUBATION

`Clc1c(Cl)c(Br)c2c(c1Cl)-c1nc-2nc2[n-]c(nc3nc(nc4[n-]c(n1)c1c(Cl)c(Br)c(Cl)c(Br)c41)-c1c(Cl)c(Cl)c(Br)c(Cl)c1-3)c1c(Br)c(Cl)c(Br)c(Cl)c21.[Cu+2]` was tested, and the mutagenic call (Test System: AMES SALMONELLA TYPHIMURIUM, Strain/Indicator: TA98, Metabolic Activation: HAMSTER, LIVER, S-9, AROCLOR 1254 (10%), Method: PREINCUBATION) was “active; positive”, the mutagenic call [1] was “inactive; negative” and the mutagenic call (Test System: AMES SALMONELLA TYPHIMURIUM, Strain/Indicator: TA98, Metabolic Activation: RAT, LIVER, S-9, AROCLOR 1254 (10%), Method: PREINCUBATION) was “active; positive”. For the same compound, the mutagenic call (Test System: AMES SALMONELLA TYPHIMURIUM, Strain/Indicator: TA100, Metabolic Activation: HAMSTER, LIVER, S-9, AROCLOR 1254 (10%), Method: PREINCUBATION) was “inactive; negative”, the mutagenic call [2] was “inactive; negative” and the mutagenic call (Test System: AMES SALMONELLA TYPHIMURIUM, Strain/Indicator: TA100, Metabolic Activation: RAT, LIVER, S-9, AROCLOR 1254 (10%), Method: PREINCUBATION) was “inactive; negative”. For the same compound, the mutagenic call (Test System: AMES SALMONELLA TYPHIMURIUM, Strain/Indicator: TA1535, Metabolic Activation: HAMSTER, LIVER, S-9, AROCLOR 1254 (10%), Method: PREINCUBATION) was “inactive; negative”, the mutagenic call [3] was “inactive; negative” and the mutagenic call (Test System: AMES SALMONELLA TYPHIMURIUM, Strain/Indicator: TA1535, Metabolic Activation: RAT, LIVER, S-9, AROCLOR 1254 (10%), Method: PREINCUBATION) was “inactive; negative”. For the same compound, the mutagenic call (Test System: AMES SALMONELLA TYPHIMURIUM, Strain/Indicator: TA1537, Metabolic Activation: HAMSTER, LIVER, S-9, AROCLOR 1254 (10%), Method: PREINCUBATION) was “inactive; negative”, the mutagenic call [4] was “inactive; negative” and the mutagenic call (Test System: AMES SALMONELLA TYPHIMURIUM, Strain/Indicator: TA1537, Metabolic Activation: RAT, LIVER, S-9, AROCLOR 1254 (10%), Method: PREINCUBATION) was “active; positive”.
For `Cc1[nH]c(=O)c(C#N)cc1-c1ccncc1`, the mutagenic call (Test System: AMES SALMONELLA TYPHIMURIUM, Strain/Indicator: TA97, Metabolic Activation: NONE) was “inactive; negative”, the mutagenic call (Test System: AMES SALMONELLA TYPHIMURIUM, Strain/Indicator: TA97, Metabolic Activation: S-9) was “inactive; negative” and the mutagenic call (Test System: AMES SALMONELLA TYPHIMURIUM, Strain/Indicator: TA98, Metabolic Activation: NONE) was “inactive; negative”. For the same compound, the mutagenic call [1] was “inactive; negative”, the mutagenic call (Test System: AMES SALMONELLA TYPHIMURIUM, Strain/Indicator: TA98, Metabolic Activation: RAT, LIVER, S-9, PHENOBARBITAL AND 5,6-BENZOFLAVONE, Method: PREINCUBATION) was “inactive; negative” and the mutagenic call (Test System: AMES SALMONELLA TYPHIMURIUM, Strain/Indicator: TA98, Metabolic Activation: S-9) was “inactive; negative”. For the same compound, the mutagenic call [2] was “inactive; negative”, the mutagenic call (Test System: AMES SALMONELLA TYPHIMURIUM, Strain/Indicator: TA100, Metabolic Activation: RAT, LIVER, S-9, PHENOBARBITAL AND 5,6-BENZOFLAVONE, Method: PREINCUBATION) was “inactive; negative” and the mutagenic call (Test System: AMES SALMONELLA TYPHIMURIUM, Strain/Indicator: TA100, Metabolic Activation: S-9) was “inactive; negative”. The mutagenic call (Test System: AMES SALMONELLA TYPHIMURIUM, Strain/Indicator: TA102, Metabolic Activation: NONE) was “inactive; negative”, the mutagenic call (Test System: AMES SALMONELLA TYPHIMURIUM, Strain/Indicator: TA102, Metabolic Activation: S-9) was “inactive; negative” and the mutagenic call [3] was “inactive; negative”. The mutagenic call (Test System: AMES SALMONELLA TYPHIMURIUM, Strain/Indicator: TA1535, Metabolic Activation: RAT, LIVER, S-9, PHENOBARBITAL AND 5,6-BENZOFLAVONE, Method: PREINCUBATION) was “inactive; negative”, the mutagenic call [4] was “inactive; negative” and the mutagenic call (Test System: AMES SALMONELLA TYPHIMURIUM, Strain/Indicator: TA1537, Metabolic Activation: RAT, LIVER, S-9, PHENOBARBITAL AND 5,6-BENZOFLAVONE, Method: PREINCUBATION) was “inactive; negative”. For the same compound, the mutagenic call [5] was “inactive; negative”, the mutagenic call (Test System: E. COLI, Strain/Indicator: WP2 UVRA, Metabolic Activation: RAT, LIVER, S-9, PHENOBARBITAL AND 5,6-BENZOFLAVONE, Method: PREINCUBATION) was “inactive; negative” and the mutagenic call (Test System: MOUSE LYMPHOMA, Strain/Indicator: L5178Y (TK+/TK-), Metabolic Activation: NONE, Method: SUSPENSION/PLATE) was “inactive; negative”. The mutagenic call (Test System: MOUSE LYMPHOMA, Strain/Indicator: L5178Y (TK+/TK-), Metabolic Activation: RAT, LIVER, S-9, PHENOBARBITAL AND 5,6-BENZOFLAVONE, Method: SUSPENSION/PLATE) was “inactive; negative”.
`CCN1CCN(C(=O)N[C@@H](C(=O)N[C@@H]2C(=O)N3[C@@H]2SC(C)(C)[C@@H]3C(=O)O)c2ccccc2)C(=O)C1=O` was tested, and the mutagenic call (Test System: AMES SALMONELLA TYPHIMURIUM, Strain/Indicator: TA98, Metabolic Activation: MOUSE, IN VIVO, Method: HOST-MEDIATED) was “inactive; negative”, the mutagenic call [1] was “inactive; negative” and the mutagenic call (Test System: AMES SALMONELLA TYPHIMURIUM, Strain/Indicator: TA98, Metabolic Activation: NONE, Method: STANDARD PLATE) was “inactive; negative”. For the same compound, the mutagenic call (Test System: AMES SALMONELLA TYPHIMURIUM, Strain/Indicator: TA98, Metabolic Activation: RAT, LIVER, S-9, AROCLOR 1254, Method: STANDARD PLATE) was “inactive; negative”, the mutagenic call (Test System: AMES SALMONELLA TYPHIMURIUM, Strain/Indicator: TA98, Metabolic Activation: S-9, Method: PREINCUBATION) was “inactive; negative” and the mutagenic call (Test System: AMES SALMONELLA TYPHIMURIUM, Strain/Indicator: TA100, Metabolic Activation: MOUSE, IN VIVO, Method: HOST-MEDIATED) was “inactive; negative”. The mutagenic call [2] was “inactive; negative”, the mutagenic call (Test System: AMES SALMONELLA TYPHIMURIUM, Strain/Indicator: TA100, Metabolic Activation: NONE, Method: STANDARD PLATE) was “inactive; negative” and the mutagenic call (Test System: AMES SALMONELLA TYPHIMURIUM, Strain/Indicator: TA100, Metabolic Activation: RAT, LIVER, S-9, AROCLOR 1254, Method: STANDARD PLATE) was “inactive; negative”. For the same compound, the mutagenic call (Test System: AMES SALMONELLA TYPHIMURIUM, Strain/Indicator: TA100, Metabolic Activation: S-9, Method: PREINCUBATION) was “inactive; negative”, the mutagenic call (Test System: AMES SALMONELLA TYPHIMURIUM, Strain/Indicator: TA1535, Metabolic Activation: MOUSE, IN VIVO, Method: HOST-MEDIATED) was “inactive; negative” and the mutagenic call [3] was “inactive; negative”. For the same compound, the mutagenic call (Test System: AMES SALMONELLA TYPHIMURIUM, Strain/Indicator: TA1535, Metabolic Activation: NONE, Method: STANDARD PLATE) was “inactive; negative”, the mutagenic call (Test System: AMES SALMONELLA TYPHIMURIUM, Strain/Indicator: TA1535, Metabolic Activation: RAT, LIVER, S-9, AROCLOR 1254, Method: STANDARD PLATE) was “inactive; negative” and the mutagenic call (Test System: AMES SALMONELLA TYPHIMURIUM, Strain/Indicator: TA1535, Metabolic Activation: S-9, Method: PREINCUBATION) was “inactive; negative”. For the same compound, the mutagenic call (Test System: AMES SALMONELLA TYPHIMURIUM, Strain/Indicator: TA1537, Metabolic Activation: MOUSE, IN VIVO, Method: HOST-MEDIATED) was “inactive; negative”, the mutagenic call [4] was “inactive; negative” and the mutagenic call (Test System: AMES SALMONELLA TYPHIMURIUM, Strain/Indicator: TA1537, Metabolic Activation: NONE, Method: STANDARD PLATE) was “inactive; negative”. For the same compound, the mutagenic call (Test System: AMES SALMONELLA TYPHIMURIUM, Strain/Indicator: TA1537, Metabolic Activation: RAT, LIVER, S-9, AROCLOR 1254, Method: STANDARD PLATE) was “inactive; negative”, the mutagenic call (Test System: AMES SALMONELLA TYPHIMURIUM, Strain/Indicator: TA1537, Metabolic Activation: S-9, Method: PREINCUBATION) was “inactive; negative” and the mutagenic call (Test System: AMES SALMONELLA TYPHIMURIUM, Strain/Indicator: TA1538, Metabolic Activation: NONE, Method: STANDARD PLATE) was “inactive; negative”. For the same compound, the mutagenic call (Test System: AMES SALMONELLA TYPHIMURIUM, Strain/Indicator: TA1538, Metabolic Activation: RAT, LIVER, S-9, AROCLOR 1254, Method: STANDARD PLATE) was “inactive; negative”, the mutagenic call [5] was “inactive; negative” and the mutagenic call (Test System: E. COLI, Strain/Indicator: WP2 UVRA, Metabolic Activation: NONE, Method: STANDARD PLATE) was “inactive; negative”. For the same compound, the mutagenic call (Test System: E. COLI, Strain/Indicator: WP2 UVRA, Metabolic Activation: RAT, LIVER, S-9, AROCLOR 1254, Method: STANDARD PLATE) was “inactive; negative” and the mutagenic call (Test System: E. COLI, Strain/Indicator: WP2 UVRA, Metabolic Activation: S-9, Method: PREINCUBATION) was “inactive; negative”.
